Patent publication US20040175691A1, “Use of the KCNQ2 and KCNQ3 genes for the discovery of agents useful in the treatment of neurological disorders” (priority 1998, published 2004)

Assays:
Kv1.2 = target: T1, Kv1.2 (Homo sapiens, UniProt P16389); assay: Blockade of cloned Kv1.2 channel in oocytes; format: cell-based; settings: mean±s.e.m.
T1 construct: expressed in transfected cells; host or cells: oocytes (Xenopus)

KCNQ2 + KCNQ3 = target: T2, KCNQ2 + KCNQ3 (UniProt O43526+O88944, DEL417-446); assay: Blockade of KCNQ2+KCNQ3 channels expressed in Xenopus oocytes; format: cell-based, human KCNQ2, rat KCNQ3; settings: mean±s.e.m.
T2 construct: Full-length KCNQ2 cDNAs were amplified from adult human brain cDNA; Multiple full-length cDNA clones were amplified in independent PCR reactions from rat SCG cDNA; expressed in transfected cells; host or cells: Xenopus oocytes injected with cRNA
Description: Method: Full-length KCNQ2 cDNAs were amplified from adult human brain cDNA using the following primers ([…], […]) with the Expand Fidelity enzyme mixture (Boehringer Mannheim, Indianapolis). […] This region is also alternatively spliced in the KCNQ2 cDNA clone described by Biervert et al. (1998). Preparation, injection of cRNA and recording from oocytes was performed at room temperature as described previously (Dixon et al. 1996). The standard extracellular recording solution contained: 82 mM NaCl, 2 mM KCl, 1.8 mM CaCl2, 1 mM MgCl2, and 5 mM Na-HEPES (pH 7.6). Data collection and analysis were performed using pClamp software (Axon Instruments, Foster City, Calif.).
Holding potential was −60 mV and the cell was repetitively depolarized to −30 mV for 1 minute to reach steady-state blockade. Tail currents were recorded at −50 mV.
IC50 values are all expressed in μM, mean±s.e.m. In cases where the IC50 values were greater than 100 μM the exact value is not reported due to limited solubility in the drug.

Kv4.3 = target: T3, Kv4.3 (Homo sapiens, UniProt Q9UK17); assay: Blockade of cloned Kv4.3 channel in oocytes; format: cell-based; settings: mean±s.e.m.
T3 construct: expressed in transfected cells; host or cells: oocytes (Xenopus)
T3 sequence (Q9UK17 1-655): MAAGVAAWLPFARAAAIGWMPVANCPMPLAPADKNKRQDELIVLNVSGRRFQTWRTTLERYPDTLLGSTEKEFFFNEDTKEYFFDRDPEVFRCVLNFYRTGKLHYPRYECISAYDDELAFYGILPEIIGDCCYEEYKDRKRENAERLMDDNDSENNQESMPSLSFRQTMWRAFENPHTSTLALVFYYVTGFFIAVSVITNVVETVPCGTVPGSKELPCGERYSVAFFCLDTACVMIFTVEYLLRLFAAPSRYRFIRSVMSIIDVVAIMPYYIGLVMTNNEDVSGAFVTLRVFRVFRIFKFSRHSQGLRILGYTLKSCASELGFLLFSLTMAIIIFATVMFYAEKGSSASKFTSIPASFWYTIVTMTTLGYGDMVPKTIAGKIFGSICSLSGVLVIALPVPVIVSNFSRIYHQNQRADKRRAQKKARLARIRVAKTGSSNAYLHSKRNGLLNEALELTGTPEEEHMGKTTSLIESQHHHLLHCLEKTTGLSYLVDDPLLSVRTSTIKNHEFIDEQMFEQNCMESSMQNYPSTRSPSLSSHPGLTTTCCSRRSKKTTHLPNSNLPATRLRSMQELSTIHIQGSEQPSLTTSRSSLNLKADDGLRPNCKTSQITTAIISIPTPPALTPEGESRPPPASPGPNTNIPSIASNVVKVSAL

eag1 = target: T4, eag1 (Rattus norvegicus, UniProt Q63472); assay: Blockade of cloned eag1 channel in oocytes; format: cell-based; settings: mean±s.e.m., blockade incomplete
T4 construct: expressed in transfected cells; host or cells: oocytes (Xenopus)
T4 sequence (Q63472 1-962): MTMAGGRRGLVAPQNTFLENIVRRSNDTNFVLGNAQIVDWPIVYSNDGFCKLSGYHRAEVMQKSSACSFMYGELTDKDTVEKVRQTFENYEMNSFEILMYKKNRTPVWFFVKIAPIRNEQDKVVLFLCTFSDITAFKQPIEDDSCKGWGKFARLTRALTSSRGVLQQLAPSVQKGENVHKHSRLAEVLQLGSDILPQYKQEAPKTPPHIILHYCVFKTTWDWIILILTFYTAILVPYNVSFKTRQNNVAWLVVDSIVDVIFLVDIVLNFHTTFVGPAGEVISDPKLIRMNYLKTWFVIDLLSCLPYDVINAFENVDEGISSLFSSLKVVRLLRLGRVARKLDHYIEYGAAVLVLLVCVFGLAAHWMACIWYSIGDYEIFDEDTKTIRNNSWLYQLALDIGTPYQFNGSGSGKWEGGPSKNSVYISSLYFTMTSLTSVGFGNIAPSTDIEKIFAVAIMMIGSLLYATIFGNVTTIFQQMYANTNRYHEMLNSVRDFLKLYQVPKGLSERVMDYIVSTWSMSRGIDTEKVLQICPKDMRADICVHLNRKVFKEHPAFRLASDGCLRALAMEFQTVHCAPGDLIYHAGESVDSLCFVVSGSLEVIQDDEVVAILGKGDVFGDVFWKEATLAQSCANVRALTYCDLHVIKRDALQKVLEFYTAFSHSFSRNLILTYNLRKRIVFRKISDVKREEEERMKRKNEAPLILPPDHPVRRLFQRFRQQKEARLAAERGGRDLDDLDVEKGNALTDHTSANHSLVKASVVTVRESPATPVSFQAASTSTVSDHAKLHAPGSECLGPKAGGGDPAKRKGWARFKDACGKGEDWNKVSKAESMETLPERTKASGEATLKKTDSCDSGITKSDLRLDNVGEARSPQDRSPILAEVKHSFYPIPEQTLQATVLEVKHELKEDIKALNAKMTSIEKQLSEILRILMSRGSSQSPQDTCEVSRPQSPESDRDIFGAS

T1 sequence (P16389 whole entry): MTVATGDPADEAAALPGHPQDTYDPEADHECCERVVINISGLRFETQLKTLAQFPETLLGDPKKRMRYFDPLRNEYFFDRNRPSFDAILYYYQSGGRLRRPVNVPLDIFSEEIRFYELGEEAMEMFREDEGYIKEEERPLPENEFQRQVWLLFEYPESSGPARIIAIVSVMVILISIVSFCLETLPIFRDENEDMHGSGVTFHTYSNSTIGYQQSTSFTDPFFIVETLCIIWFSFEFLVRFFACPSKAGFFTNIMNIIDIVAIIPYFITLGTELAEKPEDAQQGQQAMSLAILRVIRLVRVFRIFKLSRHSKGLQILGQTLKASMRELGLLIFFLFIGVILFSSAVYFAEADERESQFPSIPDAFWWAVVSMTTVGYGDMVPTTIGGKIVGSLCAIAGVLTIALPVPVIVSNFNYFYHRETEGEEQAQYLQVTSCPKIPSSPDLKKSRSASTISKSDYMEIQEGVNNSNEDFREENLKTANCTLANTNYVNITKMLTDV

| IC50 (Kv1.2) [µM] | IC50 (KCNQ2 + KCNQ3) [µM] | IC50 (Kv4.3) [µM] | IC50 (eag1) [µM] | SMILES |
| --- | --- | --- | --- | --- |
| > 100 | 0.6 ± 0.1 | 43 ± 7 | 49 ± 6 | O=C1c2ccccc2C(Cc2ccncc2)(Cc2ccncc2)c2ccccc21 [XE991, 10,10-bis(4-pyridinylmethyl)-9(10H)-anthracenone] |
| 68 ± 6 | 4 ± 0.5 | 86 ± 14 | 31 ± 3 | O=C1N(c2ccccc2)c2ccccc2C1(Cc1ccncc1)Cc1ccncc1 [Linopirdine, 3,3-bis(4-pyridinylmethyl)-1-phenylindolin-2-one] |
